Measured values: ChEMBL document CHEMBL3351528, “Targeting dopamine D3 and serotonin 5-HT1A and 5-HT2A receptors for developing effective antipsychotics: synthesis, biological characterization, and behavioral studies” (J Med Chem, 2014)

Columns and labels:
Mus musculus [1] = assay: Antipsychotic-like activity in orally dosed NMRI mouse assessed as reduction in methamphetamine-induced locomotor activity dosed 15 to 30 mins before administration of methamphetamine measured for 60 mins; format: functional; details: po, read-out: MED
hERG (KCNH2) = hERG (KCNH2) (Homo sapiens, UniProt Q12809); assay: Inhibition of human ERG at 10 uM by whole cell based electrophysiology assay
Sequence of hERG (KCNH2) (Q12809 whole entry): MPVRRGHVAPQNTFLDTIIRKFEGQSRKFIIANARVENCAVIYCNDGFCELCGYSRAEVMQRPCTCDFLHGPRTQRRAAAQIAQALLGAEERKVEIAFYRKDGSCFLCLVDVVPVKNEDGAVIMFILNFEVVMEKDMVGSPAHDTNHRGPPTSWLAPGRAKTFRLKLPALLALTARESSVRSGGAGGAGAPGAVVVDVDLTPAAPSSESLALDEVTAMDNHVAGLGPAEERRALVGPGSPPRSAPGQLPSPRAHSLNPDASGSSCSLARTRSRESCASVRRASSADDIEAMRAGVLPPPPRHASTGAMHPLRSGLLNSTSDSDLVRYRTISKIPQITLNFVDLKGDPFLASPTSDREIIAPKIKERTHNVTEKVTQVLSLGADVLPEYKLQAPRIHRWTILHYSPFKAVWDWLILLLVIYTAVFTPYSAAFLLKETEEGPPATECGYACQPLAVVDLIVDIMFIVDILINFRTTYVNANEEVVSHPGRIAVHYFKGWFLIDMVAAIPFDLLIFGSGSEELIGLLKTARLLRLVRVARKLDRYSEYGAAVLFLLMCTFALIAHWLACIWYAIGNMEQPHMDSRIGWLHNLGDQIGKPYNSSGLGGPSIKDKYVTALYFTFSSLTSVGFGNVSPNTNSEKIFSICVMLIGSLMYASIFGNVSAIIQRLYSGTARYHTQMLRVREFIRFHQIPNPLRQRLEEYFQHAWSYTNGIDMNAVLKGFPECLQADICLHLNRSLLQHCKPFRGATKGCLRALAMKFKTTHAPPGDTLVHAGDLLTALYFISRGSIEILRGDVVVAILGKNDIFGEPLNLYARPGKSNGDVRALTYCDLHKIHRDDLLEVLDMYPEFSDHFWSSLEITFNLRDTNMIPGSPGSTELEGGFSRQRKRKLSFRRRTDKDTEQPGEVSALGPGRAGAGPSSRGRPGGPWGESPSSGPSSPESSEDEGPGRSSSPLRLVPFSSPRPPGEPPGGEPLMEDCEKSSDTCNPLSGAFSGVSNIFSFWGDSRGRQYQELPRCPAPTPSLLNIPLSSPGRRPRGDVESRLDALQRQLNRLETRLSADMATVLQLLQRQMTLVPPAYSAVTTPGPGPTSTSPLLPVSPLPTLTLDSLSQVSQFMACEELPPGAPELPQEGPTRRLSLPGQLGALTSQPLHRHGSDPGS

[2] = biological target: Voltage-gated inwardly rectifying potassium channel KCNH2 (Homo sapiens, UniProt Q12809); assay: Inhibition of human ERG by whole cell based electrophysiology assay
Sequence of Voltage-gated inwardly rectifying potassium channel KCNH2 (Q12809 whole entry, the tested form may be a part): as the sequence (Q12809 whole entry) above

Heart = assay: Cardiotoxicity in Langendorff-perfused Sprague-Dawley rat heart assessed as effect on coronary perfusion pressure up to 10 uM; format: toxicity, tissue-based
Mus musculus [3] = assay: Effect on spontaneous exploratory locomotor activity in orally dosed NMRI mouse measured for 30 mins with activity counts each 5 mins; format: ADME, organism-based; details: in vivo, po, 0.5 h
Mus musculus [4] = assay: Effect on startle response in mouse at 3 to 30 mg/kg, po; format: ADME, organism-based; set-up: dose 3-30 mg/kg, route oral; details: in vivo
D(3) dopamine receptor = D(3) dopamine receptor (Homo sapiens, UniProt P35462)
Sequence of D(3) dopamine receptor (P35462 whole entry): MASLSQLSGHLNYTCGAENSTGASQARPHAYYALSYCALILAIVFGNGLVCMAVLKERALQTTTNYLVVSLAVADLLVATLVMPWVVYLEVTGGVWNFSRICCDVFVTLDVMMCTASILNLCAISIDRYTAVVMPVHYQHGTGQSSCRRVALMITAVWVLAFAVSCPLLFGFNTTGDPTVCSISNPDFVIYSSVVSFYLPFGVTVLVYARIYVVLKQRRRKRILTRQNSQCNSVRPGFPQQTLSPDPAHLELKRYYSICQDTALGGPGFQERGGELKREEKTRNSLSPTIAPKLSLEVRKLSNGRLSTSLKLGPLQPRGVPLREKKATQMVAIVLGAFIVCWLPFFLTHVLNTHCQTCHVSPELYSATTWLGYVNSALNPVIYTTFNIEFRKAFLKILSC
Description: Binding affinity to dopamine D3 receptor (unknown origin)

[5] = biological target: T1, Adrenergic receptor alpha-1 (Homo sapiens, UniProt P35348+P25100+P35368); assay: Binding affinity to alpha1 adrenoreceptor (unknown origin)
T1 sequence (P35348 whole entry): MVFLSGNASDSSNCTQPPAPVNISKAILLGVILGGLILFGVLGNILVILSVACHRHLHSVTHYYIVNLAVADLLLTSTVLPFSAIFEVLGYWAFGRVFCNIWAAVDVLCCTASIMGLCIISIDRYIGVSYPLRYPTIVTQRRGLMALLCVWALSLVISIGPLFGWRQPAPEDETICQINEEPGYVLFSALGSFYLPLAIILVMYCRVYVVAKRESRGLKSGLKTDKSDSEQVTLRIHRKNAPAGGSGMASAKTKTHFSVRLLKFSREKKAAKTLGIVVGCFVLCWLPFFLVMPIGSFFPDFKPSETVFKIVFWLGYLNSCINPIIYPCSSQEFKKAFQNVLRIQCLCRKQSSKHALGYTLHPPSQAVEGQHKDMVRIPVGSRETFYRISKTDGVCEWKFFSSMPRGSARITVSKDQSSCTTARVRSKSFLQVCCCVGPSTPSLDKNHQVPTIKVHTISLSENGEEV
T1 sequence (P25100 whole entry): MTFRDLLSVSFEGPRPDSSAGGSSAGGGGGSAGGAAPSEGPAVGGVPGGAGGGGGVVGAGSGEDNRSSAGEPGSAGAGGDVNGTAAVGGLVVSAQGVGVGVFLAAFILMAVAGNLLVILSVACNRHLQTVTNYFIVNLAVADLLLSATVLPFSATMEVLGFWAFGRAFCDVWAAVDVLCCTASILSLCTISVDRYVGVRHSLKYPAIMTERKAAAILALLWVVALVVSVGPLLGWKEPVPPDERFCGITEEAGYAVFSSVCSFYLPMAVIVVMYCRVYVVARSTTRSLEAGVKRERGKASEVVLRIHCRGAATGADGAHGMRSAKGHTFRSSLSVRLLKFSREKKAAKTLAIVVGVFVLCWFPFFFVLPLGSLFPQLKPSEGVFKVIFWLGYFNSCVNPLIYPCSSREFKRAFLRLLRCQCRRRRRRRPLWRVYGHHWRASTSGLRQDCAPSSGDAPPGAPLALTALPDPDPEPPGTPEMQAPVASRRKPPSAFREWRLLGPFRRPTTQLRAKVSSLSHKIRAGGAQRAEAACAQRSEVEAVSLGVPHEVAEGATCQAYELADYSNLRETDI
T1 sequence (P35368 whole entry): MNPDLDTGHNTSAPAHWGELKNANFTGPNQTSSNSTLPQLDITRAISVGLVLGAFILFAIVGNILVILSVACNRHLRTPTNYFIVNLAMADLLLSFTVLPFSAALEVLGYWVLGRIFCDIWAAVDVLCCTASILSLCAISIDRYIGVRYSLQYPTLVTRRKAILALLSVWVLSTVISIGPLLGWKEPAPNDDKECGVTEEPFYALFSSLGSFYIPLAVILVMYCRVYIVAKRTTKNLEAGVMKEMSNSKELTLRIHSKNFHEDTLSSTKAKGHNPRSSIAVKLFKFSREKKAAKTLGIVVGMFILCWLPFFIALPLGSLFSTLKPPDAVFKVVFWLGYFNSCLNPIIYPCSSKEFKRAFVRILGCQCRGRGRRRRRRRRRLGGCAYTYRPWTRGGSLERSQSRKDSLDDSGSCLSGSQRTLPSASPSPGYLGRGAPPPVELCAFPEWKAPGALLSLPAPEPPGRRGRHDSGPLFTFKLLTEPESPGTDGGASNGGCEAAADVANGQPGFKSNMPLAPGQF

- MED (Mus musculus [3]): <= 3 mg kg-1
- Ki (D(3) dopamine receptor): 0.6 nM
- Ki [5]: 50 nM
Structure (SMILES): O=C(NCCCCN1CCN(c2ccccc2)CC1)c1ccc2ncccc2c1
- minimal effective dose (Mus musculus [1]): > 30 mg/kg
- inhibition at 10 µM (hERG (KCNH2)): 47%
- IC50 [2]: 10000 nM
- Activity (Heart): Non-toxic
- Activity (Mus musculus [4]): Non-toxic
